# Measurements as given in US9951028B2, “Agricultural chemicals” (REDAG CROP PROTECTION LTD, priority 2013, dated 2018).
# Key:
# Format in all cases: in vivo
# [1] = tested on: Abutilon theophrasti (China Jute); experiment: Herbicidal efficacy screen, corrected necrosis
# Description: (§1) Plants were obtained as seeds and were grown to the 2-4 true leaf stage. Plants were grown under laboratory conditions, individually in seed trays. Each plant (in an approximately 3 cm diameter plug) was then detached from the tray for spraying. The compounds were screened at a range of five concentrations, diluted in acetone and Tween™. A carrier only control was also conducted. Treatments were applied directly onto the plants, using a potter tower, at a specified application rate. One plant of each species was sprayed using a potter tower. The 3 different types of plants were placed on a 10 cm diameter platform directly beneath the potter sprayer and sprayed simultaneously. The growth of the plants and any Phytotoxicity effects were then assessed at intervals over 21 days, according to EPPO guideline PP1/135. In the tables below C represents a percentage increase in necrosis relative to the control of 0.1-50; B represents a percentage inhibition of 50-80; and A represents a percentage inhibition of 80-100. Certain compounds of the invention were screened for herbicidal efficacy against target plants: Amaranthus retroflexus (redroot pigweed), Abutilon theophrasti (China Jute): Capsella bursa-pastoris, (shepherd's-purse) Echinochloa crus-galli, Hordeum vulgare (Barley),
# [2] = tested on: Amaranthus retroflexus (redroot pigweed); experiment: Herbicidal efficacy screen, corrected necrosis
# Description: as §1
# [3] = tested on: Capsella bursa-pastoris, (shepherd's-purse); experiment: Herbicidal efficacy screen, corrected necrosis
# Description: as §1
# [4] = tested on: white mustard Sinapsis alba; experiment: Herbicidal efficacy screen, potter tower spray, necrosis assessed
# Description: (§2) Compounds 22, 23 and 24 were screened for herbicidal efficacy against target plants: garden cress, Lepidium sativum, common chickweed, Stellaria media, and white mustard […] alba Plants were obtained as seeds and were grown to the 2-4 true leaf stage. Plants were grown under laboratory conditions, individually in seed trays. Each plant (in an approximately 3 cm diameter plug) was then detached from the tray for spraying. The compounds were screened at a range of five concentrations, diluted in acetone and TweenTM. A carrier only control was also conducted. Treatments were applied directly onto the plants, using a potter tower, at a specified application rate. One plant of each species was sprayed using a potter tower. The 3 different types of plants were placed on a 10 cm diameter platform directly beneath the potter sprayer and sprayed simultaneously. The growth of the plants and any Phytotoxicity effects were then assessed at intervals over 21 days, according to EPPO guideline PP1/135. Five replicas were performed for each treatment, for each species. In the tables below C represents a percentage increase in necrosis relative to the control of 0.1-50; B represents a percentage inhibition of 50-80; and A represents a percentage inhibition of 80-100.
# [5] = tested on: garden cress, Lepidium sativum; experiment: as above; settings: 12.5 g/ha
# Description: as §2
# [6] = 6.25 g/ha, day 1 post application
# [7] = 6.25 g/ha, day 7 post application
# [8] = 12.5 g/ha, day 1 post application
# [9] = 12.5 g/ha, day 7 post application
# [10] = 25 g/ha, day 1 post application
# [11] = 25 g/ha, day 7 post application
# [12] = 50 g/ha, day 1 post application
# [13] = 50 g/ha, day 7 post application
# [14] = 100 g/ha, day 1 post application
# [15] = 100 g/ha, day 7 post application
smiles,measurement,setting,value
"CC(C)C(C)S(=O)(=O)NCc1cc(-n2c(=O)cc(C(F)(F)F)n(C)c2=O)c(F)cc1Cl (stereo not shown) [Compound 24, N-[[2-Chloro-4-fluoro-5-[3-methyl-2,6-dioxo-4-(trifluoromethyl)pyrimidin-1-yl]phenyl]methyl]-3-methyl-butane-2-sulfonamide]",Average of corrected necrosis,[1]; [6],0%
same,Average of corrected necrosis,[1]; [7],A (A represents a percentage inhibition of 80-100)
same,Average of corrected necrosis,[1]; [8],0%
same,Average of corrected necrosis,[1]; [9],A (A represents a percentage inhibition of 80-100)
same,Average of corrected necrosis,[1]; [10],0%
same,Average of corrected necrosis,[1]; [11],A (A represents a percentage inhibition of 80-100)
same,Average of corrected necrosis,[1]; [12],0%
same,Average of corrected necrosis,[1]; [13],A (A represents a percentage inhibition of 80-100)
same,Average of corrected necrosis,[1]; [14],C (C represents a percentage increase in necrosis relative to the control of 0.1-50)
same,Average of corrected necrosis,[1]; [15],A (A represents a percentage inhibition of 80-100)
same,Average of corrected necrosis,[2]; [6],C (C represents a percentage increase in necrosis relative to the control of 0.1-50)
same,Average of corrected necrosis,[2]; [7],A (A represents a percentage inhibition of 80-100)
same,Average of corrected necrosis,[2]; [8],C (C represents a percentage increase in necrosis relative to the control of 0.1-50)
same,Average of corrected necrosis,[2]; [9],A (A represents a percentage inhibition of 80-100)
same,Average of corrected necrosis,[2]; [10],C (C represents a percentage increase in necrosis relative to the control of 0.1-50)
same,Average of corrected necrosis,[2]; [11],A (A represents a percentage inhibition of 80-100)
same,Average of corrected necrosis,[2]; [12],C (C represents a percentage increase in necrosis relative to the control of 0.1-50)
same,Average of corrected necrosis,[2]; [13],A (A represents a percentage inhibition of 80-100)
same,Average of corrected necrosis,[2]; [14],C (C represents a percentage increase in necrosis relative to the control of 0.1-50)
same,Average of corrected necrosis,[2]; [15],A (A represents a percentage inhibition of 80-100)
same,Average of corrected necrosis,[3]; [6],C (C represents a percentage increase in necrosis relative to the control of 0.1-50)
same,Average of corrected necrosis,[3]; [7],A (A represents a percentage inhibition of 80-100)
same,Average of corrected necrosis,[3]; [8],0%
same,Average of corrected necrosis,[3]; [9],B (B represents a percentage inhibition of 50-80)
same,Average of corrected necrosis,[3]; [10],C (C represents a percentage increase in necrosis relative to the control of 0.1-50)
same,Average of corrected necrosis,[3]; [11],A (A represents a percentage inhibition of 80-100)
same,Average of corrected necrosis,[3]; [12],C (C represents a percentage increase in necrosis relative to the control of 0.1-50)
same,Average of corrected necrosis,[3]; [13],A (A represents a percentage inhibition of 80-100)
same,Average of corrected necrosis,[3]; [14],C (C represents a percentage increase in necrosis relative to the control of 0.1-50)
same,Average of corrected necrosis,[3]; [15],A (A represents a percentage inhibition of 80-100)
same,Average of necrosis,[4]; [8],C (C represents a percentage increase in necrosis relative to the control of 0.1-50)
same,Average of necrosis,"[4]; 12.5 g/ha, day 2 post application",C (C represents a percentage increase in necrosis relative to the control of 0.1-50)
same,Average of necrosis,"[4]; 12.5 g/ha, day 3 post application",C (C represents a percentage increase in necrosis relative to the control of 0.1-50)
same,Average of necrosis,"[4]; 12.5 g/ha, day 4 post application",C (C represents a percentage increase in necrosis relative to the control of 0.1-50)
same,Average of necrosis,"[4]; 12.5 g/ha, day 5 post application",C (C represents a percentage increase in necrosis relative to the control of 0.1-50)
same,Average of necrosis,[4]; [9],C (C represents a percentage increase in necrosis relative to the control of 0.1-50)
same,Average of necrosis,"[4]; 12.5 g/ha, day 10 post application",C (C represents a percentage increase in necrosis relative to the control of 0.1-50)
same,Average of necrosis,[4]; [10],C (C represents a percentage increase in necrosis relative to the control of 0.1-50)
same,Average of necrosis,"[4]; 25 g/ha, day 2 post application",C (C represents a percentage increase in necrosis relative to the control of 0.1-50)
same,Average of necrosis,"[4]; 25 g/ha, day 3 post application",C (C represents a percentage increase in necrosis relative to the control of 0.1-50)
same,Average of necrosis,"[4]; 25 g/ha, day 4 post application",C (C represents a percentage increase in necrosis relative to the control of 0.1-50)
same,Average of necrosis,"[4]; 25 g/ha, day 5 post application",C (C represents a percentage increase in necrosis relative to the control of 0.1-50)
same,Average of necrosis,[4]; [11],C (C represents a percentage increase in necrosis relative to the control of 0.1-50)
same,Average of necrosis,"[4]; 25 g/ha, day 10 post application",C (C represents a percentage increase in necrosis relative to the control of 0.1-50)
same,Average of necrosis,[4]; [12],C (C represents a percentage increase in necrosis relative to the control of 0.1-50)
same,Average of necrosis,"[4]; 50 g/ha, day 2 post application",C (C represents a percentage increase in necrosis relative to the control of 0.1-50)
same,Average of necrosis,"[4]; 50 g/ha, day 3 post application",C (C represents a percentage increase in necrosis relative to the control of 0.1-50)
same,Average of necrosis,"[4]; 50 g/ha, day 4 post application",C (C represents a percentage increase in necrosis relative to the control of 0.1-50)
same,Average of necrosis,"[4]; 50 g/ha, day 5 post application",C (C represents a percentage increase in necrosis relative to the control of 0.1-50)
same,Average of necrosis,[4]; [13],C (C represents a percentage increase in necrosis relative to the control of 0.1-50)
same,Average of necrosis,"[4]; 50 g/ha, day 10 post application",C (C represents a percentage increase in necrosis relative to the control of 0.1-50)
same,Average of necrosis,[4]; [14],C (C represents a percentage increase in necrosis relative to the control of 0.1-50)
same,Average of necrosis,"[4]; 100 g/ha, day 2 post application",C (C represents a percentage increase in necrosis relative to the control of 0.1-50)
same,Average of necrosis,"[4]; 100 g/ha, day 3 post application",C (C represents a percentage increase in necrosis relative to the control of 0.1-50)
same,Average of necrosis,"[4]; 100 g/ha, day 4 post application",C (C represents a percentage increase in necrosis relative to the control of 0.1-50)
same,Average of necrosis,"[4]; 100 g/ha, day 5 post application",C (C represents a percentage increase in necrosis relative to the control of 0.1-50)
same,Average of necrosis,[4]; [15],C (C represents a percentage increase in necrosis relative to the control of 0.1-50)
same,Average of necrosis,"[4]; 100 g/ha, day 10 post application",C (C represents a percentage increase in necrosis relative to the control of 0.1-50)
same,Average of necrosis,"[4]; 200 g/ha, day 1 post application",C (C represents a percentage increase in necrosis relative to the control of 0.1-50)
same,Average of necrosis,"[4]; 200 g/ha, day 2 post application",C (C represents a percentage increase in necrosis relative to the control of 0.1-50)
same,Average of necrosis,"[4]; 200 g/ha, day 3 post application",C (C represents a percentage increase in necrosis relative to the control of 0.1-50)
same,Average of necrosis,"[4]; 200 g/ha, day 4 post application",C (C represents a percentage increase in necrosis relative to the control of 0.1-50)
same,Average of necrosis,"[4]; 200 g/ha, day 5 post application",C (C represents a percentage increase in necrosis relative to the control of 0.1-50)
same,Average of necrosis,"[4]; 200 g/ha, day 7 post application",C (C represents a percentage increase in necrosis relative to the control of 0.1-50)
same,Average of necrosis,"[4]; 200 g/ha, day 10 post application",C (C represents a percentage increase in necrosis relative to the control of 0.1-50)
same,Average of necrosis,[5]; day 1 post application,C (C represents a percentage increase in necrosis relative to the control of 0.1-50)
same,Average of necrosis,[5]; day 2 post application,C (C represents a percentage increase in necrosis relative to the control of 0.1-50)
